Experimental data reported in PMC6287766 (Molecular cancer therapeutics, 2017).

Tested on: murine brainstem glioma (mBSG) cells
Assay: Cell viability / proliferation IC50
Assay type: cell-based
Settings: Mus musculus, read-out: IC50, cell viability

SMILES | IC50
Cc1nc(Nc2ncc(C(=O)Nc3c(C)cccc3Cl)s2)cc(N2CCN(CCO)CC2)n1 [dasatinib] | 19 ± 20 nM
COc1cccc2c1C(=O)c1c(O)c3c(c(O)c1C2=O)C[C@@](O)(C(=O)CO)C[C@@H]3O[C@H]1C[C@H](N)[C@H](O)[C@H](C)O1 [doxorubicin] | 710 ± 120 nM
